Source: patent US6737383B1, “Herbicidal oxadiazolidines” (priority 1999, dated 2004)

What was measured:
[1] = system: bedstraw; assay: Test B pre/postemergence bedstraw; format: in vivo, Galium aparine
Outline: (§1)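 Test chemicals in a non-phytotoxic solvent mixture with surfactant were sprayed preemergence onto planted seeds and postemergence onto plants 2 to 18 cm tall (1- to 4-leaf stage). After twelve to sixteen days in a greenhouse, injury was visually rated against untreated controls from 0 (no effect) to 10 (complete control).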

[2] = system: blackgrass; assay: Test B pre/postemergence blackgrass; format: in vivo, Alopecurus myosuroides
Outline: as §1

[3] = system: surinam grass; assay: Test B pre/postemergence surinam grass; format: in vivo, Brachiaria decumbens
Outline: as §1

[4] = system: cocklebur; assay: Test B pre/postemergence cocklebur; format: in vivo, Xanthium strumarium
Outline: as §1

[5] = system: corn; assay: Test B pre/postemergence corn; format: in vivo, Zea mays
Outline: as §1

[6] = system: crabgrass; assay: Test B pre/postemergence crabgrass; format: in vivo, Digitaria sanguinalis
Outline: as §1

[7] = system: giant foxtail; assay: Test B pre/postemergence giant foxtail; format: in vivo, Setaria faberii
Outline: as §1

[8] = system: morningglory; assay: Test B pre/postemergence morningglory; format: in vivo, Ipomoea hederacea
Outline: as §1

[9] = system: pigweed; assay: Test B pre/postemergence pigweed; format: in vivo, Amaranthus retroflexus
Outline: as §1

[10] = system: soybean; assay: Test B pre/postemergence soybean; format: in vivo, Glycine max
Outline: as §1

[11] = system: sugar beet; assay: Test B pre/postemergence sugar beet; format: in vivo, Beta vulgaris
Outline: as §1

[12] = system: wild oat; assay: Test B pre/postemergence wild oat; format: in vivo, Avena fatua
Outline: as §1

[13] = system: purple nutsedge; assay: Test B pre/postemergence purple nutsedge; format: in vivo, Cyperus rotundus
Outline: as §1

[14] = system: rice; assay: Test B flood test rice; format: in vivo, Oryza sativa
Outline: (§2)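 Plants were grown to the 2-leaf stage before treatment with test chemical, then held in a greenhouse for twelve to sixteen days. Injury was visually rated against untreated controls on a 0–10 scale, where 0 is no effect and 10 is complete control.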

[15] = system: smallflower flatsedge; assay: Test B flood test smallflower flatsedge; format: in vivo, Cyperus difformis
Outline: as §2

[16] = system: duck salad; assay: Test B flood test duck salad; format: in vivo, Heteranthera limosa
Outline: as §2

[17] = Postemergence, Rate 62 g/ha, scale 0 to 10, 0 is no effect, 10 is complete control
[18] = Postemergence, Rate 250 g/ha, scale 0 to 10, 0 no effect, 10 complete control
[19] = Preemergence, Rate 31 g/ha, visual rating, scale 0 to 10 (0 no effect, 10 complete control)
[20] = Preemergence, Rate 62 g/ha, scale 0 to 10, 0 is no effect, 10 is complete control
[21] = Preemergence, Rate 125 g/ha, scale 0 to 10 (0 no effect, 10 complete control)
[22] = Preemergence, Rate 250 g/ha, scale of 0 to 10 where 0 is no effect and 10 is complete control
[23] = Rate 31 g/ha, Postemergence, scale 0 to 10
[24] = Rate 125 g/ha, Postemergence, scale 0 to 10, 0 no effect, 10 complete control
[25] = Rate 125 g/ha, Postemergence section (flood test species), scale 0 to 10, 0 no effect, 10 complete control
[26] = Rate 250 g/ha, headed Pre-emergence (flood test species), scale 0 to 10 (0 no effect, 10 complete control)
[27] = Rate 500 g/ha, Postemergence section of Table B, 0 to 10 scale (0 no effect, 10 complete control)
[28] = Rate 500 g/ha, headed Pre-emergence (flood test species), scale 0 to 10 (0 no effect, 10 complete control)
[29] = Rate 1000 g/ha, Pre-emergence (as headed), scale 0 to 10
[30] = Rate 2000 g/ha, Pre-emergence (as headed), scale 0 to 10
[31] = flood test, listed under Postemergence, Rate 250 g/ha, scale 0 to 10, 0 no effect, 10 complete control

## COc1ccccc1-n1c(=O)on(C(=O)N(c2ccc(F)cc2)C(C)C)c1=O [Compound 30]
[1]; [17]
  Bedstraw plant response rating: 0
[1]; [18]
  Bedstraw plant response rating: 0
[1]; [19]
  Bedstraw plant response rating: 0
[1]; [20]
  Plant response rating, Bedstraw: 0
[1]; [21]
  Plant response rating, Bedstraw: 0
[1]; [22]
  Plant response rating, Bedstraw: 0
[1]; [23]
  Bedstraw plant response rating: 0
[1]; [24]
  Bedstraw plant response rating: 0
[2]; [17]
  Blackgrass plant response rating: 0
[2]; [18]
  Blackgrass plant response rating: 2
[2]; [19]
  Blackgrass plant response rating: 0
[2]; [20]
  Plant response rating, Blackgrass: 3
[2]; [21]
  Plant response rating, Blackgrass: 3
[2]; [22]
  Plant response rating, Blackgrass: 7
[2]; [23]
  Blackgrass plant response rating: 0
[2]; [24]
  Blackgrass plant response rating: 0
[3]; [17]
  B. signalgrass plant response rating: 0
[3]; [18]
  B. signalgrass plant response rating: 0
[3]; [19]
  B. signalgrass plant response rating: 0
[3]; [20]
  Plant response rating, B. signalgrass: 0
[3]; [21]
  Plant response rating, B. signalgrass: 0
[3]; [22]
  Plant response rating, B. signalgrass: 4
[3]; [23]
  B. signalgrass plant response rating: 0
[3]; [24]
  B. signalgrass plant response rating: 0
[4]; [17]
  Cocklebur plant response rating: 0
[4]; [18]
  Cocklebur plant response rating: 0
[4]; [19]
  Cocklebur plant response rating: 0
[4]; [20]
  Plant response rating, Cocklebur: 0
[4]; [21]
  Plant response rating, Cocklebur: 0
[4]; [23]
  Cocklebur plant response rating: 0
[4]; [24]
  Cocklebur plant response rating: 0
[5]; [17]
  Corn plant response rating: 0
[5]; [18]
  Corn plant response rating: 0
[5]; [19]
  Corn plant response rating: 0
[5]; [20]
  Plant response rating, Corn: 0
[5]; [21]
  Plant response rating, Corn: 0
[5]; [22]
  Plant response rating, Corn: 0
[5]; [23]
  Corn plant response rating: 0
[5]; [24]
  Corn plant response rating: 0
[6]; [17]
  Crabgrass plant response rating: 1
[6]; [18]
  Crabgrass plant response rating: 9
[6]; [19]
  Crabgrass plant response rating: 2
[6]; [20]
  Plant response rating, Crabgrass: 3
[6]; [21]
  Plant response rating, Crabgrass: 9
[6]; [22]
  Plant response rating, Crabgrass: 10
[6]; [23]
  Crabgrass plant response rating: 0
[6]; [24]
  Crabgrass plant response rating: 8
[7]; [17]
  Giant foxtail plant response rating: 0
[7]; [18]
  Giant foxtail plant response rating: 3
[7]; [19]
  Giant foxtail plant response rating: 2
[7]; [20]
  Plant response rating, Giant foxtail: 2
[7]; [21]
  Plant response rating, Giant foxtail: 3
[7]; [22]
  Plant response rating, Giant foxtail: 10
[7]; [23]
  Giant foxtail plant response rating: 0
[7]; [24]
  Giant foxtail plant response rating: 2
[8]; [17]
  Morningglory plant response rating: 1
[8]; [18]
  Morningglory plant response rating: 6
[8]; [19]
  Morningglory plant response rating: 0
[8]; [20]
  Plant response rating, Morningglory: 0
[8]; [21]
  Plant response rating, Morningglory: 0
[8]; [22]
  Plant response rating, Morningglory: 0
[8]; [23]
  Morningglory plant response rating: 1
[8]; [24]
  Morningglory plant response rating: 1
[9]; [17]
  Redroot pigweed plant response rating: 0
[9]; [18]
  Redroot pigweed plant response rating: 0
[9]; [19]
  Redroot pigweed plant response rating: 0
[9]; [20]
  Plant response rating, Redroot pigweed: 0
[9]; [21]
  Plant response rating, Redroot pigweed: 0
[9]; [22]
  Plant response rating, Redroot pigweed: 7
[9]; [23]
  Redroot pigweed plant response rating: 0
[9]; [24]
  Redroot pigweed plant response rating: 0
[10]; [17]
  Soybean plant response rating: 1
[10]; [18]
  Soybean plant response rating: 2
[10]; [19]
  Soybean plant response rating: 0
[10]; [20]
  Plant response rating, Soybean: 0
[10]; [21]
  Plant response rating, Soybean: 0
[10]; [22]
  Plant response rating, Soybean: 0
[10]; [24]
  Soybean plant response rating: 1
[11]; [17]
  Sugarbeets plant response rating: 0
[11]; [18]
  Sugarbeets plant response rating: 0
[11]; [19]
  Sugarbeets plant response rating: 0
[11]; [20]
  Plant response rating, Sugarbeets: 0
[11]; [21]
  Plant response rating, Sugarbeets: 0
[11]; [22]
  Plant response rating, Sugarbeets: 0
[11]; [24]
  Sugarbeets plant response rating: 0
[12]; [17]
  Wild oats plant response rating: 0
[12]; [18]
  Wild oats plant response rating: 0
[12]; [19]
  Wild oats plant response rating: 0
[12]; [21]
  Plant response rating, Wild oats: 2
[12]; [22]
  Plant response rating, Wild oats: 8
[12]; [24]
  Wild oats plant response rating: 0
[13]; [17]
  Nutsedge plant response rating: 0
[13]; [18]
  Nutsedge plant response rating: 0
[13]; [19]
  Nutsedge plant response rating: 0
[13]; [20]
  Plant response rating, Nutsedge: 0
[13]; [21]
  Plant response rating, Nutsedge: 0
[13]; [22]
  Plant response rating, Nutsedge: 0
[13]; [23]
  Nutsedge plant response rating: 0
[13]; [24]
  Nutsedge plant response rating: 0
[14]; [17]
  Rice plant response rating: 0
[14]; [25]
  Rice plant response rating: 0
[14]; [26]
  Rice plant response rating: 0
[14]; [27]
  Rice plant response rating: 0
[14]; [28]
  Plant response rating, Rice: 0
[14]; [29]
  Rice plant response rating: 0
[14]; [30]
  Rice plant response rating: 0
[14]; [31]
  Rice plant response rating: 0
[15]; [17]
  S. Flatsedge plant response rating: 0
[15]; Pre-emergence, Rate 1000 g/ha, scale 0 to 10 (0 no effect, 10 complete control)
  S. Flatsedge plant response rating: 0
[15]; [25]
  S. Flatsedge plant response rating: 0
[15]; [26]
  S. Flatsedge plant response rating: 0
[15]; [28]
  Plant response rating, S. Flatsedge: 0
[15]; [30]
  S. Flatsedge plant response rating: 0
[15]; [31]
  S. Flatsedge plant response rating: 0
[16]; [17]
  Ducksalad plant response rating: 0
[16]; [25]
  Ducksalad plant response rating: 0
[16]; [26]
  Ducksalad plant response rating: 0
[16]; [27]
  Ducksalad plant response rating: 0
[16]; [28]
  Plant response rating, Ducksalad: 0
[16]; [29]
  Ducksalad plant response rating: 0
[16]; [30]
  Ducksalad plant response rating: 0
[16]; [31]
  Ducksalad plant response rating: 0
